From paper PMC10663516 (Scientific Reports, 2023)

How the values were obtained:
[1] = system: LY11212/GCB; assay: DLBCL PDX model; format: in vivo, mouse; details: 13 days, QD PO, TL-895 and ibrutinib 25 mg/kg, acalabrutinib 30 mg/kg
Protocol: (§1) All three compounds were formulated in a solution of 20% kleptose (hydroxypropyl β-cyclodextrin) in 50 mM citrate and administered QD PO during the treatment periods given for each model.
(§2) For mean values > 0: %ΔT/ΔC=endtumorvolumetreatment-starttumorvolumetreatment/endtumorvolumecontrol-starttumorvolumecontrol×100
(§3) For mean values ≤ 0 (i.e. regression): %ΔT/ΔC=endtumorvolumetreatment-starttumorvolumetreatment/starttumorvolumecontrol×100
(§4) The research use of patient material in PDX models at Crown Bioscience, XenoSTART and EPO-GmbH was approved by the local Institutional Ethical Review Boards and the patients provided written informed consent. Molecular analysis was performed on samples from each model using the EdgeSeq DLBCL Cell of Origin Assay (HTG Molecular Diagnostics, Tucson, AZ, USA) to confirm ABC-GCB DLBCL subtype.
(§5) Stock mice inoculated with human DLBCL cancer tissues were euthanized by progressive hypoxemia with CO2 and tumors were harvested. Tumor fragments were used at three different contract research organizations for xenotransplantation into different mouse strains for the following models: (1) 6-week-old female nude (NMRI:nu/nu) or CB17-SCID mice (Javier Labs, France): Ly12638, Ly11212, and Ly13005 (Experimental Pharmacology and Oncology Berlin-Buch GmbH [EPO-GmbH], Germany); (2) 6–8-week-old female BALB/c nude or NOD SCID mice (Beijing HFK Bioscience Co., Ltd. Beijing, China): LY0257, LY2214, LY3604, LY2298, LY2264, LY2318, and LY2345 (Crown Bioscience Inc, Taicang, China); and (3) 6–12-week-old female CB-17 SCID mice (CB17/Icr-Prkdc^scid/IcrIcoCrl Charles River Laboratories, Wilmington, MA, USA): ST118B, ST949B, ST359, ST949, ST2761B, ST2963, ST1361, ST2078, ST1735B, ST2902, and ST3497 (XenoSTART, San Antonio, TX, USA).
(§6) When the average tumor volume was within a pre-determined range (100–300 mm^3), mice were assigned to treatment groups to balance the mean starting tumor volumes (n = 5 for all models except LY13005, which was n = 3). […] Tumor volumes were recorded 2–3 times per week. Mean %∆T/∆C was calculated at the end of treatment as described above for MCL models.
(§7) Tumor volume was used as the measure of efficacy for statistical analyses of in vivo xenograft studies. Tumor volume data from individual studies were log-transformed and statistically analyzed using repeated measures analysis of covariance (RM-ANCOVA) to determine significant treatment effects, followed by post hoc Tukey’s test for multiple pairwise comparisons (all α = 0.05) using R software. Day 0 data were used only as covariates in the analyses because tumor measurements on that day were recorded before the first treatments were administered.

[2] = system: LY2264/ABC; assay: DLBCL PDX model; format: in vivo, mouse; details: LY2264/ABC MyD88, 25 days, QD PO; TL-895 and ibrutinib 25 mg/kg, acalabrutinib 30 mg/kg
Protocol: as §1, §2, §3, §4, §5, §6, §7

[3] = system: ST1735B/GCB; assay: DLBCL PDX model; format: in vivo, mouse; details: 29 days, QD PO, TL-895 and ibrutinib 25 mg/kg, acalabrutinib 30 mg/kg
Protocol: as §1, §2, §3, §4, §5, §6, §7

[4] = system: ST2902/GCB; assay: DLBCL PDX model; format: in vivo, mouse; details: 22 days, QD PO, TL-895 and ibrutinib 25 mg/kg, acalabrutinib 30 mg/kg
Protocol: as §1, §2, §3, §4, §5, §6, §7

[5] = system: LY12638/GCB; assay: DLBCL PDX model; format: in vivo, mouse; details: 25 days, QD PO, TL-895 and ibrutinib 25 mg/kg, acalabrutinib 30 mg/kg
Protocol: as §1, §2, §3, §4, §5, §6, §7

[6] = system: ST2078/GCB; assay: DLBCL PDX model; format: in vivo, mouse; details: 20 days, QD PO, TL-895 and ibrutinib 25 mg/kg, acalabrutinib 30 mg/kg
Protocol: as §1, §2, §3, §4, §5, §6, §7

[7] = system: ST2761B/GCB; assay: DLBCL PDX model; format: in vivo, mouse; details: 24 days, QD PO, TL-895 and ibrutinib 25 mg/kg, acalabrutinib 30 mg/kg
Protocol: as §1, §2, §3, §4, §5, §6, §7

[8] = system: LY13005/ABC; assay: DLBCL PDX model; format: in vivo, mouse; details: 14 days, QD PO, TL-895 and ibrutinib 25 mg/kg, acalabrutinib 30 mg/kg
Protocol: as §1, §2, §3, §4, §5, §6, §7

[9] = system: LY2345/ABC; assay: DLBCL PDX model; format: in vivo, mouse; details: 17 days, QD PO, TL-895 and ibrutinib 25 mg/kg, acalabrutinib 30 mg/kg
Protocol: as §1, §2, §3, §4, §5, §6, §7

[10] = system: ST359/GCB; assay: DLBCL PDX model; format: in vivo, mouse; details: 11 days, QD PO, TL-895 and ibrutinib 25 mg/kg, acalabrutinib 30 mg/kg
Protocol: as §1, §2, §3, §4, §5, §6, §7

[11] = system: ST949/GCB; assay: DLBCL PDX model; format: in vivo, mouse; details: 14 days, QD PO, TL-895 and ibrutinib 25 mg/kg, acalabrutinib 30 mg/kg
Protocol: as §1, §2, §3, §4, §5, §6, §7

[12] = system: LY0257/ABC; assay: DLBCL PDX model; format: in vivo, mouse; details: LY0257/ABC MyD88, 17 days, QD PO; TL-895 and ibrutinib 25 mg/kg, acalabrutinib 30 mg/kg
Protocol: as §1, §2, §3, §4, §5, §6, §7

[13] = system: LY2318/ABC; assay: DLBCL PDX model; format: in vivo, mouse; details: 14 days, QD PO, TL-895 and ibrutinib 25 mg/kg, acalabrutinib 30 mg/kg
Protocol: as §1, §2, §3, §4, §5, §6, §7

[14] = system: LY3604/ABC; assay: DLBCL PDX model; format: in vivo, mouse; details: 17 days, QD PO, TL-895 and ibrutinib 25 mg/kg, acalabrutinib 30 mg/kg
Protocol: as §1, §2, §3, §4, §5, §6, §7

[15] = system: ST23497/GCB; assay: DLBCL PDX model; format: in vivo, mouse; details: 17 days, QD PO, TL-895 and ibrutinib 25 mg/kg, acalabrutinib 30 mg/kg
Protocol: as §1, §2, §3, §4, §5, §6, §7

[16] = system: ST2963/GCB; assay: DLBCL PDX model; format: in vivo, mouse; details: 13 days, QD PO, TL-895 and ibrutinib 25 mg/kg, acalabrutinib 30 mg/kg
Protocol: as §1, §2, §3, §4, §5, §6, §7

[17] = system: LY2298/ABC; assay: DLBCL PDX model; format: in vivo, mouse; details: LY2298/ABC MyD88, 16 days, QD PO; TL-895 and ibrutinib 25 mg/kg, acalabrutinib 30 mg/kg
Protocol: as §1, §2, §3, §4, §5, §6, §7

[18] = system: ST118B/ABC; assay: DLBCL PDX model; format: in vivo, mouse; details: ST118B/ABC MyD88, 19 days, QD PO; TL-895 and ibrutinib 25 mg/kg, acalabrutinib 30 mg/kg
Protocol: as §1, §2, §3, §4, §5, §6, §7

[19] = system: LY2214/Unc; assay: DLBCL PDX model; format: in vivo, mouse; details: 17 days, QD PO, TL-895 and ibrutinib 25 mg/kg, acalabrutinib 30 mg/kg
Protocol: as §1, §2, §3, §4, §5, §6, §7

[20] = system: ST1361/GCB; assay: DLBCL PDX model; format: in vivo, mouse; details: 11 days, QD PO, TL-895 and ibrutinib 25 mg/kg, acalabrutinib 30 mg/kg
Protocol: as §1, §2, §3, §4, §5, §6, §7

[21] = system: Daudi cells; assay: Rituximab-induced ADCC, NK cell-driven lysis (Calcein-AM release); format: cell-based, human; details: 3 µg/mL rituximab, primary NK cells, 4 h; TL-895 0.1–10 µM, ibrutinib and acalabrutinib 0.3–30 µM
From the text: ADCC analysis was based on quantitation of Calcein-AM release by […] detection on a FLUOstar® Omega (BMG LABTECH).

SMILES | %ΔT/ΔC [1] [%] | %ΔT/ΔC [2] | %ΔT/ΔC [3] [%] | %ΔT/ΔC [4] [%] | %ΔT/ΔC [5] [%] | %ΔT/ΔC [6] | %ΔT/ΔC [7] [%] | %ΔT/ΔC [8] | %ΔT/ΔC [9] [%] | %ΔT/ΔC [10] [%] | %ΔT/ΔC [11] [%] | %ΔT/ΔC [12] | %ΔT/ΔC [13] [%] | %ΔT/ΔC [14] | %ΔT/ΔC [15] [%] | %ΔT/ΔC [16] [%] | %ΔT/ΔC [17] | %ΔT/ΔC [18] [%] | %ΔT/ΔC [19] [%] | %ΔT/ΔC [20] | further results
CC#CC(=O)N1CCC[C@H]1c1nc(-c2ccc(C(=O)Nc3ccccn3)cc2)c2c(N)nccn12 [Acalabrutinib] | 126 | 48^V % | 80 | 85 | 262 | 115^I % | 94 | 64^V % | 108 | 54 | 72 | 54^M % | 102 | 36^V % | 100 | 116 | 27^V,I % | 104 | 63 | 74^V % | Inhibition of the ADCC mechanism of rituximab [21]: neither TL-895 (0.1–10 µM) nor acalabrutinib (0.3–30 µM) inhibited the ADCC mechanism of rituximab at the lower, more clinically relevant, concentrations
C=CC(=O)N1CCC[C@@H](n2nc(-c3ccc(Oc4ccccc4)cc3)c3c(N)ncnc32)C1 [Ibrutinib] | 171 | 74^M % | 75 | 92 | 121 | 75^A % | 71 | 71^M % | 118 | 62 | 86 | 88^M % | 86 | 38^V % | 95 | 81 | 69^A % | 90 | 77 | 65^V % | Inhibition of the ADCC mechanism of rituximab [21]: ADCC was inhibited by ibrutinib (0.3–30 µM) in a concentration-dependent manner
C=CC(=O)N1CCC(F)(CNc2ncnc(N)c2-c2ccc(Oc3ccccc3)cc2)CC1 [TL-895] | 115 | 37^V,I % | 101 | 104 | 84 | 114% | 90 | 43^V,I % | 120 | 71 | 83 | 45^V,I,A % | 104 | 32^V % | 101 | 106 | 38% | 68 | 93 | 60^V % | Inhibition of the ADCC mechanism of rituximab [21]: neither TL-895 (0.1–10 µM) nor acalabrutinib (0.3–30 µM) inhibited the ADCC mechanism of rituximab at the lower, more clinically relevant, concentrations
